pIC50: −log10 of the molar value. Active and inactive are the calls of the source. No cut-off for these calls is given here.
Columns and labels:
B16-F10 [1] = experiment: Induction of apoptosis in mouse B16-F10 cells assessed as necrotic cells at 4 uM incubated for 48 hrs by Annexin V-FITC/PI staining based flow cytometry analysis (reference value: 2.24%); format: functional
B16-F10 [2] = experiment: Induction of apoptosis in mouse B16-F10 cells assessed as late apoptotic cells at 4 uM incubated for 48 hrs by Annexin V-FITC/PI staining based flow cytometry analysis (reference value: 5.02 %); format: functional
B16-F10 [3] = experiment: Immunomodulatory activity in mouse B16-F10 cells implanted in C57BL/6J mouse assessed as percentage of CD3 positive CD8 positive cells in tumor at 10 mg/kg, ip administered once daily for 9 days in presence of NP19 by flow cytometric analysis (reference value: 0.44 %); format: functional; conditions: time 9 day
B16-F10 [4] = experiment: Induction of cell cycle arrest in mouse B16-F10 cells assessed as accumulation of cells at S phase at 4 uM incubated for 48 hrs by PI staining based flow cytometry analysis (reference value: 24.04%); format: functional
B16-F10 [5] = experiment: Induction of cell cycle arrest in mouse B16-F10 cells assessed as accumulation of cells at G0/G1 phase at 4 uM incubated for 48 hrs by PI staining based flow cytometry analysis (reference value: 70.09%); format: functional
B16-F10 [6] = experiment: Immunomodulatory activity in mouse B16-F10 cells implanted in C57BL/6J mouse assessed as percentage of CD3 positive CD4 positive cells in tumor at 10 mg/kg, ip administered once daily for 9 days in presence of NP19 by flow cytometric analysis (reference value: 0.20 %); format: functional; conditions: time 9 day
HepG2 = experiment: Antiproliferative activity against human HepG2 cells assessed as cell growth inhibition incubated for 48 hrs by MTT assay; format: functional, cell-based; conditions: HepG2, 48 h
B16-F10 [7] = experiment: Induction of apoptosis in mouse B16-F10 cells assessed as viable cells at 4 uM incubated for 48 hrs by Annexin V-FITC/PI staining based flow cytometry analysis (reference value: 92.3%); format: functional; conditions: read-out: Activity
MDA-MB-231 = experiment: Antiproliferative activity against human MDA-MB-231 cells assessed as cell growth inhibition incubated for 48 hrs by MTT assay; format: functional, cell-based; conditions: MDA-MB-231, 48 h
B16-F10 [8] = experiment: Induction of cell cycle arrest in mouse B16-F10 cells assessed as accumulation of cells at G2/M phase at 4 uM incubated for 48 hrs by PI staining based flow cytometry analysis (reference value: 5.87%); format: functional
[9] = target: T1, Programmed cell death protein 1/Programmed cell death 1 ligand 1 (Homo sapiens, UniProt Q9NZQ7); experiment: Inhibition of PD-1/PD-L1 (unknown origin) interaction assessed as inhibition rate at 1 uM by HTRF assay relative to control; format: protein-complex assay
T1 sequence (Q15116 whole entry): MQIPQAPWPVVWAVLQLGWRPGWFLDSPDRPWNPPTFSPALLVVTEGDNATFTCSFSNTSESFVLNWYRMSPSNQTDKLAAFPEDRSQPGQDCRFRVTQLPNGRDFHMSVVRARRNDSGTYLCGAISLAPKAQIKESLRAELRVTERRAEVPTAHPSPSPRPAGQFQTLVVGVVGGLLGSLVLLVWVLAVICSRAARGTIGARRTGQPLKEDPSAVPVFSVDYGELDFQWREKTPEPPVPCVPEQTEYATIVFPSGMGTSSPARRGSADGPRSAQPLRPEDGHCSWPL
T1 sequence (Q9NZQ7 whole entry): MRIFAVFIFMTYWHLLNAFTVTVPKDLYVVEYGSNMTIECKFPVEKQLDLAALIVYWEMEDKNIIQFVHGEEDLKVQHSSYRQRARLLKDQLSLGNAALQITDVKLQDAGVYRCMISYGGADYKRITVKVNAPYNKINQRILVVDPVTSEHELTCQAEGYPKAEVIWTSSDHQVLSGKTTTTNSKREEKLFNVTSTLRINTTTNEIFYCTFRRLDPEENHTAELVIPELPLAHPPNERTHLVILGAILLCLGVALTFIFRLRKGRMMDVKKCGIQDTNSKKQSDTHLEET

B16-F10 [10] = experiment: Antitumor activity against mouse B16-F10 cells implanted in C57BL/6J mouse assessed as tumor growth inhibition at 20 mg/kg, ip administered once daily for 9 days in presence of NP19; format: functional; conditions: B16-F10, 216 h, time 9 day, read-out: TGI
A-375 = experiment: Antiproliferative activity against human A-375 cells assessed as cell growth inhibition incubated for 48 hrs by MTT assay; format: functional, cell-based; conditions: A-375, 48 h
B16-F10 [11] = experiment: Induction of apoptosis in mouse B16-F10 cells assessed as early apoptotic cells at 4 uM incubated for 48 hrs by Annexin V-FITC/PI staining based flow cytometry analysis (reference value: 0.45 %); format: functional
HCT-116 = experiment: Antiproliferative activity against human HCT-116 cells assessed as cell growth inhibition incubated for 48 hrs by MTT assay; format: functional, cell-based; conditions: HCT-116, 48 h
B16-F10 [12] = experiment: Immunomodulatory activity in mouse B16-F10 cells implanted in C57BL/6J mouse assessed as percentage of CD3 positive CD8 positive cells in tumor at 10 mg/kg, ip administered once daily for 9 days in presence of MS-275 by flow cytometric analysis (reference value: 0.44 %); format: functional; conditions: time 9 day
Histone deacetylase 3 = Histone deacetylase 3 (Homo sapiens, UniProt O15379); experiment: Inhibition of human recombinant HDAC3 using Ac-Leu-Gly-Lys (Ac)-AMC as substrate preincubated for 10 mins followed by substrate addition and measured after 45 mins by TECAN microtiter plate reader analysis
Sequence of Histone deacetylase 3 (O15379 whole entry): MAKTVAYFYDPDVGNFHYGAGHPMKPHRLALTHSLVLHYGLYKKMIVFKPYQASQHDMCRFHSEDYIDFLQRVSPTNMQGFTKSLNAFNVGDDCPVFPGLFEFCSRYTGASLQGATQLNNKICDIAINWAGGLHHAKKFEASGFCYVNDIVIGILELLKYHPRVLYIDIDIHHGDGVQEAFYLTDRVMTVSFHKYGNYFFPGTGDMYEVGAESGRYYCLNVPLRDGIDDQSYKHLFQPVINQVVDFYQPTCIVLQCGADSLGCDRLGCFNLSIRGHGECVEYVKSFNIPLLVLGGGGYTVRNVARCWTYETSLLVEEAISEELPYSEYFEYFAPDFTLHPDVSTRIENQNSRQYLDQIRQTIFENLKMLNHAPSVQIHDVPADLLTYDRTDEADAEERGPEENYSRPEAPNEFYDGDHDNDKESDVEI

[13] = target: T2, Histone deacetylase 3 (Mus musculus) (UniProt O88895); experiment: Inhibition of HDAC3 in mouse B16-F10 cells assessed as upregulation of Ac-H3 level at 3 uM incubated for 24 hrs by Western blotting analysis; format: cell-based
T2 sequence (whole entry): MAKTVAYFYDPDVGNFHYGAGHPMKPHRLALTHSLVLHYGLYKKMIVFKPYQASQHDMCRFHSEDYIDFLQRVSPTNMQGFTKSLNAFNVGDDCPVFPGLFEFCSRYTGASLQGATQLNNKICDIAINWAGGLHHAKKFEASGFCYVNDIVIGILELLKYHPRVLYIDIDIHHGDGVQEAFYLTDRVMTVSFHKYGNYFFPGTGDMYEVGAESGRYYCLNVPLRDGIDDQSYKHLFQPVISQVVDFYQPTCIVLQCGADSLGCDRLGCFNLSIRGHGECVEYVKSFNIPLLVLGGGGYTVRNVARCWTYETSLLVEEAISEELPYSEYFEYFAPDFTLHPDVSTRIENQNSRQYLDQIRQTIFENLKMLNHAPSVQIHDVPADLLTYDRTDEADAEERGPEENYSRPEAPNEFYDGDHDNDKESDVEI

4T1 = experiment: Antiproliferative activity against mouse 4T1 cells assessed as cell growth inhibition incubated for 48 hrs by MTT assay; format: functional, cell-based; conditions: 4T1, 48 h
[14] = Toxicity in C57BL/6J mouse implanted with mouse B16-F10 cells assessed as body weight loss at 20 mg/kg, ip administered once daily for 9 days; format: organism-based; conditions: in vivo, 216 h, time 9 day
[15] = Toxicity in C57BL/6J mouse implanted with mouse B16-F10 cells assessed as body weight loss at 20 mg/kg, ip administered once daily for 5 days in presence of MS-275; format: organism-based; conditions: in vivo, 120 h, time 5 day
B16-F10 [16] = experiment: Antitumor activity against mouse B16-F10 cells implanted in C57BL/6J mouse assessed as tumor growth inhibition at 20 mg/kg, ip administered once daily for 9 days; format: functional; conditions: B16-F10, 216 h, time 9 day, read-out: TGI
[17] = target: T1, Programmed cell death protein 1/Programmed cell death 1 ligand 1; experiment: Inhibition of PD-1/PD-L1 (unknown origin) interaction assessed as inhibition rate by HTRF assay; format: protein-complex assay
B16-F10 [18] = experiment: Antitumor activity against mouse B16-F10 cells implanted in C57BL/6J mouse assessed as tumor growth inhibition at 20 mg/kg, ip administered once daily for 9 days in presence of MS-275; format: functional; conditions: B16-F10, 216 h, time 9 day, read-out: TGI
B16-F10 [19] = experiment: Immunomodulatory activity in mouse B16-F10 cells implanted in C57BL/6J mouse assessed as percentage of CD3 positive CD8 positive cells in tumor at 20 mg/kg, ip administered once daily for 9 days by flow cytometric analysis (reference value: 0.44 %); format: functional; conditions: time 9 day
B16-F10 [20] = experiment: Immunomodulatory activity in mouse B16-F10 cells implanted in C57BL/6J mouse assessed as percentage of CD3 positive CD4 positive cells in tumor at 10 mg/kg, ip administered once daily for 9 days in presence of MS-275 by flow cytometric analysis (reference value: 0.20 %); format: functional; conditions: time 9 day
B16-F10 [21] = experiment: Immunomodulatory activity in mouse B16-F10 cells implanted in C57BL/6J mouse assessed as percentage of CD3 positive CD4 positive cells in tumor at 20 mg/kg, ip administered once daily for 9 days by flow cytometric analysis (reference value: 0.20 %); format: functional; conditions: time 9 day
B16-F10 [22] = experiment: Antiproliferative activity against mouse B16-F10 cells assessed as cell growth inhibition incubated for 48 hrs by MTT assay; format: functional, cell-based; conditions: B16-F10, 48 h
[23] = Toxicity in C57BL/6J mouse implanted with mouse B16-F10 cells assessed as animal death at 20 mg/kg, ip administered once daily for 5 days in presence of MS-275; format: organism-based; conditions: in vivo, 120 h, time 5 day

Compound	Activity (B16-F10 [1]) [%]	Activity (B16-F10 [2]) [%]	Activity (B16-F10 [4]) [%]	Activity (B16-F10 [5]) [%]	pIC50 (HepG2)	viability at 4 µM (B16-F10 [7]) [%]	pIC50 (MDA-MB-231)	Activity (B16-F10 [8]) [%]	pIC50 [9]	pIC50 (A-375)	Activity (B16-F10 [11]) [%]	pIC50 (HCT-116)	further results
Nc1ccccc1NC(=O)c1ccc(CNC(=O)OCc2cccnc2)cc1 [ENTINOSTAT]	5.25	12.8	5.79	87.62	5.20	74.5	4.52	6.59	< 5.00	5.31	7.43	5.45	Activity (B16-F10 [3]): 3.34%; Activity (B16-F10 [6]): 1.89%; inhibition in vivo at 20 mg/kg (B16-F10 [10]): 37%
Cc1c(COc2cc(OCc3cccc(C#N)c3)c(CNC(C)(C)C(=O)O)cc2Cl)cccc1-c1ccccc1	1.96	3.95	24.28	70.67	< 4.30	93.6	< 4.30	5.05	7.17	< 4.30	0.47	< 4.30	Activity (B16-F10 [12]): 3.34%; pIC50 (Histone deacetylase 3): < 5.00; inhibition [13]: inactive; pIC50 (4T1): < 4.30; Activity [14]: Non-toxic; Activity [15]: Toxic; inhibition in vivo at 20 mg/kg (B16-F10 [16]): 30.8%; pIC50 [17]: 7.17; inhibition in vivo at 20 mg/kg (B16-F10 [18]): 37%; Activity (B16-F10 [19]): 2.68%; Activity (B16-F10 [20]): 1.89%; Activity (B16-F10 [21]): 0.78%; pIC50 (B16-F10 [22]): < 4.30; Activity [23]: Toxic

Source: ChEMBL document CHEMBL6109156, “Discovery of Dual PD-L1/HDAC3 Inhibitors for Tumor Immunotherapy” (J Med Chem, 2025)
